The structures appear in SMILES notation. Where a name gives a salt, the structure may show the parent alone.

For the compound `FC(F)(F)c1nc2ccccc2c2c1nc(-c1ccco1)n2CCC1CCNCC1` (as salt: trifluoroacetate) (hydrate or solvate), the melting point (usually the temperature, or range, at which the solid turns liquid) was 133.5 to 136.5 °C (dec.).

For the compound `Fc1ccc2c(c1)nc(C(F)(F)F)c1nc(-c3ccco3)n(CCC3CCNCC3)c12` (as salt: trifluoroacetate) (hydrate or solvate), the melting point is 239 to 241 °C (dec.).

With `FC(F)(F)c1nc2ccccc2c2c1nc(-c1ccc[nH]1)n2CCC1CCNCC1` [Example 64, 1-[2-(4-Piperidyl)ethyl]-2-(2-pyrrolyl)-4-trifluoromethyl-1H-imidazo[4,5-c]-quinoline], the melting point was 280 to 282.5 °C (dec.).

As to `Fc1ccc2c(c1)nc(C(F)(F)F)c1nc(-c3nccs3)n(CCC3CCNCC3)c12` (as salt: trifluoroacetate) [Example 82, 7-Fluoro-1-[2-(4-piperidyl)ethyl]-2-(2-thiazolyl)-4-trifluoromethyl-1H-imidazo-[4,5-c]quinoline], the melting point is 236 to 237 °C (dec.).

In turn, `O=C(CCl)NCCn1c(-c2ccccc2)nc2c(C(F)(F)F)nc3ccccc3c21` [Example 124, 2-chloro-N-[2-(2-phenyl-4-trifluoromethyl-1H-imidazo[4,5-c]quinolin-1-yl)ethyl]acetamide] registered a melting point of 230.5 to 231.5 °C.

For `Cc1cccc2c1nc(C(F)(F)F)c1nc(-c3cccs3)n(CCC3CCNCC3)c12` (as salt: trifluoroacetate) (hydrate or solvate) [Example 98, 6-Methyl-1-[2-(4-piperidyl)ethyl]-2-(2-thienyl)-4-trifluoromethyl-1H-imidazo-[4,5-c]quinoline], the melting point is 227 to 229 °C (dec.).

In the case of `Cc1cccc2c1nc(C(F)(F)F)c1nc(-c3ccc[nH]3)n(CCC3CCNCC3)c12` (as salt: trifluoroacetate) (hydrate or solvate) [Example 94, 6-Methyl-1-[2-(4-piperidyl)ethyl]-2-(2-pyrrolyl)-4-trifluoromethyl-1H-imidazo-[4,5-c]quinoline], the melting point is 233 to 234 °C (dec.).

With `NCC(=O)NCCn1c(-c2ccc[nH]2)nc2c(C(F)(F)F)nc3ccccc3c21.O=C(O)/C=C/C(=O)O` [Example 131, 2-Amino-N-[2-[2-(2-pyrrolyl)-4-trifluoromethyl-1H-imidazo[4,5-c]quinolin-1-yl]ethyl]-acetamide fumarate], the melting point was 176 to 177 °C (dec.).

With `Cc1cccc2c1nc(C(F)(F)F)c1nc(-c3nccs3)n(CCC3CCNCC3)c12` (as salt: trifluoroacetate) [Example 95, 6-Methyl-1-[2-(4-piperidyl)ethyl]-2-(2-thiazolyl)-4-trifluoromethyl-1H-imidazo-[4,5-c]quinoline], the melting point was 243 to 245 °C (dec.).

On to `Cc1ccc2c(c1)nc(C(F)(F)F)c1nc(-c3ccccc3)n(CCC3CCNCC3)c12` (as salt: trifluoroacetate) [Example 86, 7-Methyl-2-phenyl-1-[2-(4-piperidyl)ethyl]-4-trifluoromethyl-1H-imidazo[4,5-c]-quinoline], for which the melting point is 234 to 235 °C (dec.).

For `FC(F)(F)c1nc2cc(Cl)ccc2c2c1nc(-c1nccs1)n2CCC1CCNCC1` [Example 74, 7-Chloro-1-[2-(4-piperidyl)ethyl]-2-(2-thiazolyl)-4-trifluoromethyl-1H-imidazo-[4,5-c]quinoline], the melting point was 232.5 to 234 °C (dec.).

In the case of `FC(F)(F)c1nc2ccccc2c2c1nc(C1CCCCC1)n2CCC1CCNCC1` (as salt: trifluoroacetate) [Example 71, 2-Cyclohexyl-1-[2-(4-piperidyl)ethyl]-4-trifluoromethyl-1H-imidazo[4,5-c]quinoline], the melting point lay in the range of 182.5 to 184 °C.

Consider `CN(C)CC(=O)NCCn1c(-c2ccccc2)nc2c(C(F)(F)F)nc3ccccc3c21.O=C(O)/C=C/C(=O)O` [Example 128, 2-Dimethylamino-N-[2-(2-phenyl-4-trifluoromethyl-1H-imidazo[4,5-c]quinolin-1-yl)-ethyl]acetamide fumarate], for which the melting point is 207.5 to 208 °C.

As to `FC(F)(F)c1nc2cc(Cl)ccc2c2c1nc(-c1cccs1)n2CCC1CCNCC1` (as salt: trifluoroacetate) (hydrate or solvate) [Example 77, 7-Chloro-1-[2-(4-piperidyl)ethyl]-2-(2-thienyl)-4-trifluoromethyl-1H-imidazo-[4,5-c]quinoline], the melting point was 217 to 219 °C (dec.).

For `FC(F)(F)c1nc2ccccc2c2c1nc(-c1ccc[nH]1)n2CCC1CNCCO1` (centres unmarked) (as salt: trifluoroacetate) [Example 102, 1-[2-(2-Morpholinyl)ethyl]-2-(2-pyrrolyl)-4-trifluoromethyl-1H-imidazo[4,5-c]-quinoline], the melting point was 254 to 258 °C (dec.).

For `NCCn1c(-c2ccccc2)nc2c(C(F)(F)F)nc3ccccc3c21` [Example 108, 1-(2-Aminoethyl)-2-phenyl-4-trifluoromethyl-1H-imidazo[4,5-c]quinoline], the melting point lay in the range of 174.5 to 175.5 °C.

Turning to `Fc1ccc2c(c1)nc(C(F)(F)F)c1nc(-c3ncc[nH]3)n(CCC3CCNCC3)c12` (as salt: trifluoroacetate) (hydrate or solvate) [Example 83, 7-Fluoro-2-(2-1H-imidazolyl)-1-[2-(4-piperidyl)ethyl]-4-trifluoromethyl-1H-imidazo[4,5-c]quinoline], the melting point is 249 to 250 °C (dec.).

For `O=C(O)c1nc2ccccc2c2c1nc(-c1ccccc1)n2CCC1CCNCC1` (as salt: trifluoroacetate) (hydrate or solvate) [Example 118, 2-Phenyl-1-[2-(4-piperidyl)ethyl]-1H-imidazo[4,5-c]quinoline-4-carboxylic acid], the melting point was 212 to 215 °C.

On to `Cc1cccc2c1nc(C(F)(F)F)c1nc(-c3ccccc3)n(CCC3CCNCC3)c12` (as salt: trifluoroacetate) [Example 93, 6-Methyl-2-phenyl-1-[2-(4-piperidyl)ethyl]-4-trifluoromethyl-1H-imidazo-[4,5-c]quinoline], for which the melting point is 218 to 219 °C (dec.).

On to `Fc1ccc2c(c1)nc(C(F)(F)F)c1nc(-c3cccs3)n(CCC3CCNCC3)c12` (as salt: trifluoroacetate) (hydrate or solvate) [Example 85, 7-Fluoro-1-[2-(4-piperidyl)ethyl]-2-(2-thienyl)-4-trifluoromethyl-1H-imidazo-[4,5-c]quinoline], for which the melting point was 234 to 235 °C (dec.).

Compound `Cc1ccc2c(c1)nc(C(F)(F)F)c1nc(-c3ccccc3O)n(CCC3CCNCC3)c12` (as salt: trifluoroacetate) returned a melting point of 161 to 162 °C.

As to `Cc1ccc2c(c1)nc(C(F)(F)F)c1nc(-c3cccs3)n(CCC3CCNCC3)c12` (as salt: trifluoroacetate) (hydrate or solvate) [Example 91, 7-Methyl-1-[2-(4-piperidyl)ethyl]-2-(2-thienyl)-4-trifluoromethyl-1H-imidazo-[4,5-c]quinoline], the melting point is 236 to 238 °C (dec.).

For `Cc1cccc2c1nc(C(F)(F)F)c1nc(-c3ccco3)n(CCC3CCNCC3)c12` (as salt: trifluoroacetate) (hydrate or solvate), the melting point was 232 to 234 °C (dec.).

Source of the values: US20040054182A1, “1h-imidazopyridine derivatives” (priority 2000, published 2004).
